Square brackets hold non-standard residues; d marks the D form. Ends that are not written are not given here.
Legend:
HUVECs [1] = assay: Endothelial cell capillary-like tube formation assay; assay type: cell-based; settings: VEGF (10 ng/mL) + 25 μM peptide; vs untreated HUVECs
Experimental: To examine the effect of the present synthetic peptide on in vitro angiogenesis, growth factor-reduced matrigel was pipetted into pre-chilled 24-well plates (150 μl matrigel per well) and polymerized for 45 min at 37° C. […] In this experiment, images were captured using a Cannon camera on Zeiss inverted microscope with magnification ×40 and tube length was quantified using Image analysis software (Image-Pro Plus). The control peptide as used in the present invention has the sequence of DLYRVR (SEQ ID NO: 10).

HUVECs [2] = assay: VEGF-induced HUVEC proliferation assay; assay type: cell-based; settings: VEGF (10 ng/mL) + 25 μM peptide; vs untreated HUVECs
Experimental: HUVECs (1×10^5 cells per well of 6-well plate) were grown in Medium 200 with Low Serum Growth Supplement (LSGS Kit, supplement contains 1.9% FBS, 3 ng/ml bFGF, 10 μg/ml heparin, 1 μg/ml hydrocortisone, and 10 ng/ml EGF). Culture plates were coated with 2% gelatin. Cells (passages 4-8) were cultured at 37° C. in a humidified atmosphere of 5% CO2. […]
HUVECs (1×10^5 cells per well of 6-well plate) in Medium 200 supplemented with LSGS Kit were allowed to grow onto 6-well plates coated with 2% gelatin for 24 hours at 37° C. in 5% CO2. The culture medium was then replaced with serum free Medium 200 overnight. […] Then, cells were harvested by trypsin-EDTA and counted using a hemocytometer.

RPMI8226 cells = assay: MTT assay, VEGF-induced proliferation of RPMI8226 cells; assay type: cell-based; settings: for effect on VEGF-induced proliferation of RPMI8226 cells: VEGF 50 ng/ml, 25 μM peptide, 24 hrs, MTT; for biological activity of the analogue relative to the 7-mer (summary statement of the description): summary of Example 1 findings
Experimental: The multiple myeloma line RPMI8226 was cultivated in complex medium (RPMI1640) supplemented with 10% (vol/vol) heat-inactivated fetal calf serum (Invitrogen), 50 μg/mL penicillin, 50 μg/mL streptomycin, and 2 mM L-glutamine at 37° C. in a 5% CO2 atmosphere. RPMI8226 cells were cultured in serum-free RPMI1640 medium for 24 hrs, and then cells were seeded in 48-well culture plates (3×10^5 cells/well) and continued to culture in 0.5 ml fresh serum-free RPMI1640 medium containing 25 μM peptide for another 24 hrs. The cell viability was determined by the MTT assay. Briefly, 50 μL of MTT stock solution (50 μL) (5 mg MTT dissolved in 1 ml of sterile PBS) was added to each culture well. In addition, 50 μL of the MTT stock solution was added in 500 μL of medium as the negative control. The culture plate was incubated at 37° C. for 4 hours. Aliquots (450 μl) from each sample were taken to a new well of 48-well culture plate, adding 100 μL DMSO, mixing thoroughly using the pipette and reacted at 37° C. for 20 min and read absorbance at 570 nm. These synthesized peptides were then subject to MTT assay, in which vascular endothelial growth factor (VEGF) was used as a stimulant to induce cell proliferation. Results are depicted in FIGS. 1 to 4.

B16-F10 melanoma cells = assay: Experimental pulmonary metastasis in mice; assay type: in vivo, C57BL/6 mice; settings: for effect on number of colonies on the surface of the lung / in vivo metastasis / No. lung colonies: 10 mg/Kg intraperitoneal every 2 days; for No. lung colonies: day 8, n = 5; for Inhibition (%): lung colonies vs vehicle, 10 mg/Kg
Experimental: 2×10^5 B16-F10 cells were suspended in 100 μl PBS and checked for viability using trypan blue staining (>95%). The B16-F10 cells were then injected into the tail vein of the 6-week-old female C57BL/6 mice; while vehicle (DMSO), the present synthetic peptide or the control peptide (10 mg/kg) were administered by intraperitoneal injections every 2 days after the B16-F10 cell injection. Five mice were used for each group. On day 8 after inoculation of cells, the lungs were removed, and the number of visible colonies on the surface of the lungs were counted using a dissecting microscope.
Metastasis is the foremost cause of death from cancer. In this example, to investigate the efficacy of the present synthetic peptide on the metastasis of cancer cells, B16-F10 cells were injected into the tail vein of a mouse, the animal was then treated with the present synthetic peptide (7-mer or 7-mer DD, 10 mg/Kg) by intraperitoneal injections every 2 days. Upon completion of the experiment, the lungs were then removed and the tumor colonies visible to the eyes were then counted. Results are depicted in FIG. 10.

[3] = system: STZ-induced diabetic mice; assay: Vascular abnormalities in the retina of diabetic mice; assay type: in vivo; settings: for Fluorescence Intensity (Fold): leaked FITC-BSA in entire retina, vs vehicle
Experimental: Diabetic mice were generated by a single intraperitoneal injection of streptozotocin (STZ) (150 mg/kg body weight). STZ was freshly prepared in 0.1 M citrate buffer (pH 4.5). After injection, mice were supplied with 10% sucrose overnight to prevent sudden hypoglycemic shock. After 1 week, mice with non-fasting blood glucose levels >500 mg/dl were defined as diabetic and used for the experiments. DMSO Vehicle or the present synthetic peptide (10 mg/kg; n≥3 per peptide) were administered by intraperitoneal injections twice a day. After treatment for 24 h, mice were intraperitoneal injected with 100 mg/kg of BSA-FITC for further 30 min.
To determine vascular lesions (hemorrhaging areas) in retina, the animals were euthanized by CO2 inhalation, and the eyes were enucleated and fixed by 2% paraformaldehyde for 2 hr and flat-mounted onto glass slides to obtain optical sections by an epifluorescence microscopy. Vascular lesions in the retina was scored in all four retinal quadrants of flat mounts by using a 20× objective. Six microscopic fields were sampled in each quadrant in both the central and peripheral retina, and data were presented as the average number of lesions/retina.
Vascular FITC-BSA leakage was determined by a fluorescence spectrofluorometer based on standard curves of FITC-BSA at excitation and emission wavelengths of 488 and 535 nm, respectively, and then normalized to a non-injected control retina. For this analysis, retinas were dissected from treated and untreated diabetic mice after BSA-FITC injections, and each was solubilized in 300 μL ice-cold PBS.
Diabetic retinopathy is characterized by blood-retinal barrier (BRB) breakdown and neurotoxicity. To evaluate the possible beneficial effect of the present synthetic peptides on diabetic retinopathy, STZ-induced diabetic mice were intraperitoneally injected with 7-mer peptide, DMSO vehicle or the control peptide (SEQ ID NO: 22). The retinal vascular abnormality was then monitored by detecting the extravasation of BSA-fluorescein. Results are depicted in FIG. 11.

rat aortic ring = assay: Rat aortic ring assay (ex vivo microvessel sprouting); design: species or system Sprague Dawley rats; settings: beta-FGF induced; peptide 50 μM
Experimental: Thoracic aortas were removed from euthanized 10-week-old male Sprague Dawley rats, and gently stripped off periaortic fibroadipose tissue. Aortas were sectioned to about 2-mm length rings, which were embedded in Matrigel. To induce angiogenesis, human recombinant bFGF (50 ng/ml) or bFGF plus the peptide (50 μM) was added in Matrigel. Gel (200 μl) containing an aortic ring was polymerized in 12-well plates (37° C. for 30 min) and then incubated with 1 ml of Medium 200 supplemented with 100 units/ml penicillin, and […] streptomycin and 2% FBS at 37 ° C. The cultures were propagated at 37 ° C. in a humidified incubator for up to 7 days. Sprouts were recorded using an inverted microscope platform (Leica DM16000B) with bright-field optics. Each ring was scored by three independent observers on a scale 0-4 depending on the degree of sprouting vessel being observed (0=no sprouting, 4=profuse sprouting). The experiment was repeated in triplicates.

| Substance | Tube length (Fold) (HUVECs [1]) | Cell number (Fold) (HUVECs [2]) | effect on VEGF-induced proliferation of RPMI8226 cells (RPMI8226 cells) | effect on number of colonies on the surface of the lung / in vivo metastasis (B16-F10 melanoma cells) | No. lung colonies (B16-F10 melanoma cells) | Inhibition (%) (B16-F10 melanoma cells) | extravasation of FITC-BSA [3] | Fluorescence Intensity (Fold) [3] | level of sprouting microvessels around the aortic ring (rat aortic ring) | biological activity of the analogue relative to the 7-mer (summary statement of the description) (RPMI8226 cells) | dose dependence of inhibitory action on VEGF-induced cell proliferation (RPMI8226 cells; 1 to 25 μM, RPMI8226 cells) |
| --- | --- | --- | --- | --- | --- | --- | --- | --- | --- | --- | --- |
| NH2-Asp-Leu-Tyr-Arg-Gln-Lys-Ser-COOH (DLYRQKS; not fully specified (N-terminus, C-terminus); printed as NH2-Asp-Leu-Tyr-Arg-Gln-Lys-Ser-COOH) [7-mer QK] | 1.46 ± 0.31 Fold | 1.09 ± 0.067 Fold | could sustain 7-mer bioactivity, only partly | may suppress in vivo metastasis | 82 ± 16.3 | 63.5% | may significantly prevent | 0.31 ± 0.081 Fold | inhibited | – | – |
| NH2-Asp-Leu-Tyr-Arg-Val-Arg-(D-Ser)-COOH (H-DLYRVR[dS]-OH) [7-mer DS] | 3.45 ± 0.26 Fold | 1.59 ± 0.084 Fold | – | – | 245 ± 30.4 | −9.0% | – | 0.96 ± 0.12 Fold | unaffected | lose its biological activity | – |
| NH2-Asp-Leu-Tyr-Arg-Leu-Arg-Ser-COOH (DLYRLRS; not fully specified (N-terminus, C-terminus); printed as NH2-Asp-Leu-Tyr-Arg-Leu-Arg-Ser-COOH) [7-mer (V→L)] | 1.41 ± 0.37 Fold | 1.02 ± 0.049 Fold | could sustain 7-mer bioactivity, only partly | may suppress in vivo metastasis | 75 ± 30.4 | 66.8% | may significantly prevent | 0.33 ± 0.079 Fold | inhibited | relatively the same bioactivity | – |
| NH2-Asp-Leu-Trp-Arg-Ile-Arg-Ser-COOH (DLWRIRS; not fully specified (N-terminus, C-terminus); printed as NH2-Asp-Leu-Trp-Arg-Ile-Arg-Ser-COOH) [7-mer WI] | 1.23 ± 0.22 Fold | 0.91 ± 0.078 Fold | could sustain 7-mer bioactivity, only partly | may suppress in vivo metastasis | 74 ± 24.3 | 67.3% | may significantly prevent | 0.31 ± 0.085 Fold | inhibited | – | – |
| H-DLYR[dV]RS-OH [7-mer DV] | 1.24 ± 0.18 Fold | 0.99 ± 0.078 Fold | – | may suppress in vivo metastasis | 51 ± 17.0 | 77.4% | may significantly prevent | 0.31 ± 0.072 Fold | inhibited | – | dose dependent manner |
| NH2-Asp-Leu-Tyr-Arg-Met-Lys-Ser-COOH (DLYRMKS; not fully specified (N-terminus, C-terminus); printed as NH2-Asp-Leu-Tyr-Arg-Met-Lys-Ser-COOH) [7-mer MK] | 1.18 ± 0.31 Fold | 1.04 ± 0.062 Fold | could sustain 7-mer bioactivity, only partly | may suppress in vivo metastasis | 79 ± 26.4 | 65.0% | may significantly prevent | 0.37 ± 0.095 Fold | inhibited | – | – |
| NH2-Asn-Val-Tyr-Arg-Val-Arg-Ser-COOH (NVYRVRS; not fully specified (N-terminus, C-terminus); printed as NH2-Asn-Val-Tyr-Arg-Val-Arg-Ser-COOH) [7-mer NV] | 1.41 ± 0.32 Fold | 1.01 ± 0.086 Fold | could sustain 7-mer bioactivity, only partly | may suppress in vivo metastasis | 55 ± 16.5 | 75.8% | may significantly prevent | 0.35 ± 0.11 Fold | inhibited | – | – |
